Where a name gives a salt, the structure may show the parent alone. Read-outs that look alike come from different tables or passages of the source.
Experiments:
[1] = biological target: T1, human serotonin transporters (Homo sapiens, UniProt P31645); assay: Serotonin Transporter Binding Assay; settings: HEK-hSERT cell membranes, 1 nM [3H]-citalopram, Cheng and Prusoff
T1 construct: expressed in transfected cells; host or cells: HEK-293 (HEK-hSERT), membrane homogenates
Method in brief: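 Membranes from HEK-293 cells stably expressing hSERT were incubated 1 hr at 25° C with 1 nM [^3H]-citalopram and test compound in 50 mM Tris pH 7.4, 120 mM NaCl, 5 mM KCl, then filtered. Non-specific binding was defined by 10 μM fluoxetine. IC50 came from displacement curves, and Ki by Cheng–Prusoff.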

[2] = biological target: T2, recombinant human dopamine D2L receptors (Homo sapiens, UniProt P14416); assay: Dopamine Binding Assay; settings: HEK-D2L cell membranes, 150 pM [3H]-spiperone, Cheng and Prusoff
T2 construct: expressed in transfected cells; host or cells: HEK-293 (HEK-D2L), membrane homogenates
T2 sequence (P14416 whole entry): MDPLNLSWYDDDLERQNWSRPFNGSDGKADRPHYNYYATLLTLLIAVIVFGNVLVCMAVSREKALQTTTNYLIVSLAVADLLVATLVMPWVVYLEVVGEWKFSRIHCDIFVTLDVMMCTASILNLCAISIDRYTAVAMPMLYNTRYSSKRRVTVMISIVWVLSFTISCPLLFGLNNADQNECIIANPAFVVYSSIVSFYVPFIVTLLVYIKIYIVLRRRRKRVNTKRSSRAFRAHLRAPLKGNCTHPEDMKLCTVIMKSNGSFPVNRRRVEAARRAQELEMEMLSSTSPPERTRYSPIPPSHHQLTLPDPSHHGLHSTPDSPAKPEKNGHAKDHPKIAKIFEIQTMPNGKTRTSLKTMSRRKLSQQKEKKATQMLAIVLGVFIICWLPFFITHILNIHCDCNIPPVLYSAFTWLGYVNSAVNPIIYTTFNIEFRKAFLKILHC
Method in brief: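 Competition binding on HEK-293 membranes stably expressing human D2L (~5 μg protein) with 150 pM [3H]-spiperone, 1.5 h at 22 °C in 50 mM Tris pH 7.4, 1 mM EDTA, 6 mM MgCl2. Filtration read-out; non-specific binding defined with 2 μM (+)butaclamol, Ki by Cheng-Prusoff.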

T1 sequence (P31645 whole entry): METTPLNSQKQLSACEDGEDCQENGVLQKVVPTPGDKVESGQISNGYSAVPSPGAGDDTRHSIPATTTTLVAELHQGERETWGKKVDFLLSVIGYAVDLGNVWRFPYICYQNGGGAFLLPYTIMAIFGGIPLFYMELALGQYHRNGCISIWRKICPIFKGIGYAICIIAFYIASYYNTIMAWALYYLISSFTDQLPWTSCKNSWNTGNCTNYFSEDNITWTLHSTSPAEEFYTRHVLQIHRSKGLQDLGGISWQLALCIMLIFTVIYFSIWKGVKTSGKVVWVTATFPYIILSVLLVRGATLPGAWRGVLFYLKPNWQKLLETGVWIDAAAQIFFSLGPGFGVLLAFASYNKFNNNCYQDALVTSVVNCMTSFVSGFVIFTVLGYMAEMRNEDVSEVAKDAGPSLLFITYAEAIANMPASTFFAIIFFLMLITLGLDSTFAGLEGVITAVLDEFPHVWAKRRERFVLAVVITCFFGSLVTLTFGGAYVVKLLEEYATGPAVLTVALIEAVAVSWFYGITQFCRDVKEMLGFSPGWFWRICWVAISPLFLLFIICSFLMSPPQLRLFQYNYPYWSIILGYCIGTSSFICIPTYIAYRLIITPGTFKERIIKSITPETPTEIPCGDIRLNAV

## Fc1ccc2[nH]cc(C3CC3CNCc3ccccc3F)c2c1 (stereo not drawn) [Example 53, trans-1-[N-(2-Fluorobenzyl)aminomethyl]2-[5-fluoroindol-3-yl]-cyclopropane]
[1]; read-out: SERT Ki
  Ki: 10 to 100 nM
[2]
  Ki: 100 to 1000 nM

## Fc1cccc(CNCC2CC2c2c[nH]c3ccc(F)cc23)c1 (stereo not drawn) [Example 54, trans-1-[N-(3-Fluorobenzyl)aminomethyl]2-[5-fluoroindol-3-yl]-cyclopropane]
[1]; read-out: SERT Ki
  Ki: 10 to 100 nM
[2]
  Ki: 100 to 1000 nM

## Fc1ccc(CNCC2CC2c2c[nH]c3ccc(F)cc23)cc1 (stereo not drawn) [Example 55, trans-1-[N-(4-Fluorobenzyl)aminomethyl]2-[5-fluoroindol-3-yl]-cyclopropane]
[1]; read-out: SERT Ki
  Ki: 10 to 100 nM
[2]
  Ki: 100 to 1000 nM

## Fc1ccc2[nH]cc(C3CC3CNCc3ccccn3)c2c1 (stereo not drawn) [Example 56, trans-2-[5-Fluoroindol-3-yl]-1-[N-(2-pyridylmethyl)aminomethyl]-cyclopropane]
[1]; read-out: SERT Ki
  Ki: 10 to 100 nM
[2]
  Ki: 100 to 1000 nM

## Fc1ccc2[nH]cc(C3CC3CNCc3cccnc3)c2c1 (stereo not drawn) [Example 57, trans-2-[5-Fluoroindol-3-yl]-1-[N-(3-pyridylmethyl)aminomethyl]-cyclopropane]
[1]; read-out: SERT Ki
  Ki: 10 to 100 nM
[2]
  Ki: 10 to 100 nM

## Fc1ccc2[nH]cc(C3CC3CNCc3ccncc3)c2c1 (stereo not drawn) [Example 58, trans-2-[5-Fluoroindol-3-yl]-1-[N-(4-pyridylmethyl)aminomethyl]-cyclopropane]
[1]; read-out: SERT Ki
  Ki: 10 to 100 nM
[2]
  Ki: 10 to 100 nM

## Fc1ccc2[nH]cc(C3CC3CNCCc3ccccc3F)c2c1 (stereo not drawn) [Example 59, trans-2-[5-Fluoroindol-3-yl]-1-[N-(2-fluorophenyl)ethylaminomethyl]-cyclopropane]
[1]; read-out: SERT Ki
  Ki: 10 to 100 nM
[2]
  Ki: 10 to 100 nM

## Fc1cccc(CCNCC2CC2c2c[nH]c3ccc(F)cc23)c1 (stereo not drawn) [Example 60, trans-2-[5-Fluoroindol-3-yl]-1-[N-(3-fluorophenyl)ethylaminomethyl]-cyclopropane]
[1]; read-out: SERT Ki
  Ki: 10 to 100 nM
[2]
  Ki: 100 to 1000 nM

## Fc1ccc(CCNCC2CC2c2c[nH]c3ccc(F)cc23)cc1 (stereo not drawn) [Example 61, trans-2-[5-Fluoroindol-3-yl]-1-[N-(4-fluorophenyl)ethylaminomethyl]-cyclopropane]
[1]; read-out: SERT Ki
  Ki: 10 to 100 nM
[2]
  Ki: 10 to 100 nM

## Fc1ccc2[nH]cc(C3CC3CNCCCc3ccccc3)c2c1 (stereo not drawn) [Example 62, trans-2-[5-Fluoroindol-3-yl]-1-[N-3-phenylpropylaminomethyl]-cyclopropane]
[1]; read-out: SERT Ki
  Ki: 1 to 10 nM
[2]
  Ki: 10 to 100 nM

## Fc1ccc2[nH]cc(C3CC3CNCCCc3cccnc3)c2c1 (stereo not drawn) [Example 63, trans-2-[5-Fluoroindol-3-yl]-1-[N-3-(3-pyridyl)propylaminomethyl]-cyclopropane]
[1]; read-out: SERT Ki
  Ki: 10 to 100 nM
[2]
  Ki: 10 to 100 nM

## Fc1ccc2[nH]cc(C3CC3CNCCc3c[nH]cn3)c2c1 (stereo not drawn) [Example 64, trans-2-[5-Fluoroindol-3-yl]-1-[N-2-(4-imidazolyl)ethylaminomethyl]-cyclopropane]
[1]; read-out: SERT Ki
  Ki: 10 to 100 nM
[2]
  Ki: 10 to 100 nM

## Fc1ccc2[nH]cc(C3CC3CNCCCn3ccnc3)c2c1 (stereo not drawn) [Example 65, trans-2-[5-Fluoroindol-3-yl]-1-[N-3-(1-imidazolyl)propylaminomethyl]-cyclopropane]
[1]; read-out: SERT Ki
  Ki: 10 to 100 nM
[2]
  Ki: 10 to 100 nM

## Fc1ccc2[nH]cc(C3CC3CNCc3cccs3)c2c1 (stereo not drawn) [Example 66, trans-2-[5-Fluoroindol-3-yl]-1-[N-2-thiopheneylmethylaminomethyl]-cyclopropane]
[1]; read-out: SERT Ki
  Ki: 10 to 100 nM
[2]
  Ki: 100 to 1000 nM

## Fc1ccc2[nH]cc(C3CC3CNCCc3cccs3)c2c1 (stereo not drawn) [Example 67, trans-2-[5-Fluoroindol-3-yl]-1-[N-2-(2-thiopheneyl)ethylaminomethyl]-cyclopropane]
[1]; read-out: SERT Ki
  Ki: 10 to 100 nM
[2]
  Ki: 10 to 100 nM

## Fc1ccc2[nH]cc(C3CC3CNCCc3c[nH]c4ccccc34)c2c1 (stereo not drawn) [Example 68, trans-2-[5-Fluoroindol-3-yl]-1-[N-2-(3-indolyl)ethylaminomethyl]-cyclopropane]
[1]; read-out: SERT Ki
  Ki: 1 to 10 nM
[2]
  Ki: 10 to 100 nM

## Fc1ccc2[nH]cc(C3CC3CNCC3CC3)c2c1 (stereo not drawn) [Example 69, trans-1-[N-Cyclopropylmethylaminomethyl]-2-[5-fluoroindol-3-yl]-cyclopropane]
[1]; read-out: SERT Ki
  Ki: 10 to 100 nM
[2]
  Ki: 100 to 1000 nM

## Fc1ccc2[nH]cc(C3CC3CNC3CCCCC3)c2c1 (stereo not drawn) [Example 70, trans-1-[N-Cyclohexylaminomethyl]-2-[5-fluoroindol-3-yl]-cyclopropane]
[1]; read-out: SERT Ki
  Ki: 10 to 100 nM
[2]
  Ki: 100 to 1000 nM

## Fc1ccc2[nH]cc(C3CC3CNCC3CCCCC3)c2c1 (stereo not drawn) [Example 71, trans-1-[N-Cyclohexylmethylaminomethyl]-2-[5-fluoroindol-3-yl]-cyclopropane]
[1]; read-out: SERT Ki
  Ki: 10 to 100 nM
[2]
  Ki: 10 to 100 nM

## CC(C)CCNCC1CC1c1c[nH]c2ccc(F)cc12 (stereo not drawn) [Example 72, trans-2-[5-Fluoroindol-3-yl]-1-[N-3-methyl-butylaminomethyl]-cyclopropane]
[1]; read-out: SERT Ki
  Ki: 10 to 100 nM
[2]
  Ki: 100 to 1000 nM

## Fc1ccc2[nH]cc(C3CC3CN3CCC(Cc4ccccc4)CC3)c2c1 (stereo not drawn) [Example 73, trans-1-(4-Benzyl-piperidin-1-yl-methyl)-2-[5-fluoroindol-3-yl]-cyclopropane]
[1]; read-out: SERT Ki
  Ki: 1 to 10 nM
[2]
  Ki: 10 to 100 nM

## Fc1ccc2[nH]cc(C3CC3CN3CCNCC3)c2c1 (stereo not drawn) [Example 74, trans-2-[5-Fluoroindol-3-yl]-1-(piperazin-1-yl-methyl)-cyclopropane]
[1]; SERT Ki (nM)
  Ki: 1 to 10 nM
[2]
  Ki: > 1000 nM

## Fc1ccc2[nH]cc(C3CC3CN3CCN(Cc4ccccc4)CC3)c2c1 (stereo not drawn) [Example 75, trans-1-[4-Benzyl-piperazin-1-yl-methyl]-2-[5-fluoroindol-3-yl]-cyclopropane]
[1]; read-out: SERT Ki
  Ki: 10 to 100 nM
[2]
  Ki: 10 to 100 nM

## CCCN(CCC)CC1CC1c1c[nH]c2ccc(F)cc12 (stereo not drawn) [Example 77, trans-1-[N,N-Dipropylaminomethyl]-2-[5-fluoroindol-3-yl]-cyclopropane]
[1]; read-out: SERT Ki
  Ki: 10 to 100 nM
[2]
  Ki: 100 to 1000 nM

## Fc1ccc2[nH]cc(C3CC3CN3CCCC3)c2c1 (stereo not drawn) [Example 84, trans-2-[5-Fluoroindol-3-yl]-1-[pyrrolidin-1-yl-methyl]-cyclopropane]
[1]; read-out: SERT Ki
  Ki: 1 to 10 nM
[2]
  Ki: 100 to 1000 nM

## Fc1ccc2[nH]cc(C3CC3CN3CCCCC3)c2c1 (stereo not drawn) [Example 85, trans-2-[5-Fluoroindol-3-yl]-1-[piperidin-1-yl-methyl]-cyclopropane]
[1]; SERT Ki (nM)
  Ki: 10 to 100 nM
[2]
  Ki: > 1000 nM

## CNC[C@H]1C[C@@H]1c1c[nH]c2ccc(C#N)cc12 [Example 120, (1S,2S)-trans-2-[5-Cyanoindol-3-yl]-1-(N-methylaminomethyl)cyclopropane]
[1]; read-out: SERT Ki
  Ki: 1 to 10 nM
[2]
  Ki: 100 to 1000 nM

## CC(C1CC1c1c[nH]c2ccc(C#N)cc12)N1CCCC1 (stereo not drawn) [Example 124, trans-3-[2-(1-Pyrrolidin-1-yl-ethyl)-cyclopropyl]-1H-indole-5-carbonitrile]
[1]; SERT Ki (nM)
  Ki: 1 to 10 nM
[2]
  Ki: > 1000 nM

## CN(C)C[C@@H]1C[C@H]1c1c[nH]c2ccc(C#N)cc12 [Example 127a, (1R,2R)-trans-2-[5-Cyanoindol-3-yl]-1-(N,N-dimethylaminomethyl)cyclopropane maleate salt]
[1]; read-out: SERT Ki
  Ki: 10 to 100 nM
[2]
  Ki: > 1000 nM

## CN(C)C[C@@H]1C[C@H]1c1c[nH]c2ccc(F)cc12 [Example 128a, (1R,2R)-trans-1-(N,N-dimethylaminomethyl)-2-[5-fluoroindol-3-yl]-cyclopropane maleate salt]
[1]; read-out: SERT Ki
  Ki: 10 to 100 nM
[2]
  Ki: > 1000 nM

## CN(Cc1ccccc1)CC1CC1c1c[nH]c2ccc(F)cc12 (stereo not drawn) [Example 131]
[1]; read-out: SERT Ki
  Ki: 1 to 10 nM
[2]
  Ki: 100 to 1000 nM

## CNCC1CC1c1c[nH]c2ccc(F)cc12 (stereo not drawn) [Example 132]
[1]; read-out: SERT Ki
  Ki: 10 to 100 nM
[2]
  Ki: 100 to 1000 nM

## CCN(C)CC1CC1c1c[nH]c2ccc(F)cc12 (stereo not drawn) [Example 133]
[1]; read-out: SERT Ki
  Ki: 10 to 100 nM
[2]
  Ki: 100 to 1000 nM

## CCOC(=O)NCCN(C)CC1CC1c1c[nH]c2ccc(C#N)cc12 (stereo not drawn) [Example 134]
[1]; read-out: SERT Ki
  Ki: 1 to 10 nM
[2]
  Ki: > 1000 nM

## CCNCC1CC1c1c[nH]c2ccc(C#N)cc12 (stereo not drawn) [Example 135]
[1]; read-out: SERT Ki
  Ki: 1 to 10 nM
[2]
  Ki: 10 to 100 nM

## CCNCC1CC1c1c[nH]c2ccc(F)cc12 (stereo not drawn) [Example 136]
[1]; SERT Ki (nM)
  Ki: 10 to 100 nM
[2]
  Ki: > 1000 nM

## N#Cc1ccc2[nH]cc(C3CC3CN3CCOCC3)c2c1 (stereo not drawn) [Example 137]
[1]; SERT Ki (nM)
  Ki: 10 to 100 nM
[2]
  Ki: > 1000 nM

## CN(CC1CC1c1c[nH]c2ccc(C#N)cc12)c1ccccc1 (stereo not drawn) [Example 138]
[1]; read-out: SERT Ki
  Ki: 10 to 100 nM
[2]
  Ki: > 1000 nM

## Fc1ccc2[nH]cc(C3CC3CNC34C[C@H]5C[C@@H](C3)C[C@@H](C4)C5)c2c1 (stereo partly drawn) [Example 139]
[1]; read-out: SERT Ki
  Ki: 10 to 100 nM
[2]
  Ki: 10 to 100 nM

## CC1CCN(CC2CC2c2c[nH]c3ccc(F)cc23)CC1 (stereo not drawn) [Example 140]
[1]; read-out: SERT Ki
  Ki: 100 to 1000 nM
[2]
  Ki: 100 to 1000 nM

## Fc1ccc2[nH]cc(C3CC3CN3CCOCC3)c2c1 (stereo not drawn) [Example 141]
[1]; read-out: SERT Ki
  Ki: 10 to 100 nM
[2]
  Ki: 100 to 1000 nM

## CCCNCC1CC1c1c[nH]c2ccc(F)cc12 (stereo not drawn) [Example 142]
[1]; read-out: SERT Ki
  Ki: 10 to 100 nM
[2]
  Ki: 100 to 1000 nM

## CN(C)CC1CC1c1c[nH]c2ccccc12 (stereo not drawn) [Example 143]
[1]; SERT Ki (nM)
  Ki: 10 to 100 nM
[2]
  Ki: > 1000 nM

## CCN(CC)CCC1CC1c1c[nH]c2ccc(C#N)cc12 (stereo not drawn) [Example 144, 3-[2-(2-Diethylamino-ethyl)-cyclopropyl]-1H-indole-5-carbonitrile]
[1]; read-out: SERT Ki
  Ki: 10 to 100 nM
[2]
  Ki: 100 to 1000 nM

## N#Cc1ccc2[nH]cc(C3CC3CCN3CCCC3)c2c1 (stereo not drawn) [Example 145, 3-[2-(2-Pyrrolidin-1-yl-ethyl)-cyclopropyl]-1H-indole-5-carbonitrile]
[1]; read-out: SERT Ki
  Ki: 10 to 100 nM
[2]
  Ki: 100 to 1000 nM
